Experimental data reported in patent EP1129112B1, “PEPTIDES CONTAINING A CHOLESTEROL RECOGNITION SEQUENCE AND THEIR USES” (Georgetown University, priority 1998, dated 1999).

Assays:
isolated mitochondria = conditions: cited from earlier work
PBR = biological target: T1, PBR (Mus musculus, UniProt P50637); test: Ligand-induced release of 3H-cholesterol from membranes of IPTG-induced transformed bacteria; type: biochemical; conditions: Fig. 3F
T1 construct: inferred from vector pET15b with insertion at NdeI) (N); made in house; host or cells: Escherichia coli BL21(DE3), IPTG-induced; whole bacteria or bacterial membranes
Method: ^3H-Cholesterol uptake by E. coli cells was examined using the indicated concentrations of control or IPTG-treated transformed bacteria incubated in the presence of 6.7 nM ^3H-cholesterol (50.0 Ci/mmol) for 60 min at 37°C. Specific cholesterol uptake is defined as IPTG-induced minus basal values, E. coli protoplasts were prepared from cells grown in LB at 37°C to the logarithmic phase of growth and centrifuged at 10,000g for 5 min. The cells were washed twice in 10mM Tris-HCl buffer [pH8.0] and the pellet was resuspended in a solution containing 20%(w/w) sucrose and 0.1M Tris-HCl [pH8.0]. The cells were then suspended in 1ml of buffer per 10 OD450 and mixed. Within 1 min lysozyme was added from a 2mg/ml stock solution in distilled water to a final concentration of 100 ug/ml at 37°C, and stirring was continued for the next 12 min. The cell suspension was diluted 1:10 with 0.1M Na2EDTA prewarmed to 37°C. Continuous stirring and slow dilution over 2.5 min prevented cell lysis. More than 99% of the cells became spherical within 10 minutes (Weiss, R. L. 1978, Meth. Cell Biol. 20:141-147).

recombinant mPBR = biological target: T2, recombinant mPBR (Mus musculus, UniProt P50637); test: 3H-PK 11195 radioligand binding to IPTG-induced recombinant PBR in E. coli (Scatchard analysis); conditions: 3H-PK 11195 binding, IPTG-induced E. coli transfected with mouse PBR cDNA
T2 construct: inferred from vector pET15b with insertion at NdeI) (N); made in house; host or cells: Escherichia coli BL21(DE3), IPTG-induced; whole bacteria or bacterial membranes
Method: Binding specificity of the IPTG-induced PBR in E. coli was determined in binding studies where specific binding of ^3H-PK 11195 (1.0 nM) was measured in the presence of the indicated concentrations of the indicated ligands.
Radioligand binding assays- ^3H-1- (2-chlorophenyl)-N-methyl-N-(1-methyl-propyl)-3-isoquinolinecarboxamide (PK 11195) binding studies were performed as we previously described (Papadopoulos, V. et al. 1990, J. Biol. Chem. 265: 3772-3779; Garnier, M. et al. 1994, Mol. Pharm. 45:201-211). The dissociation constant (Kd) and the number of binding sites (Bmax) were determined by Scatchard plot analysis of the data using the LIGAND program (Munson, P. J. and Rodbard, D. 1980, Anal. Biochem. 107:220-239).

Bmax (recombinant mPBR) [pmol/mg protein]	Kd (recombinant mPBR) [nM]	Molecule	ability to mimic the effect of DBI on mitochondrial steroidogenesis (isolated mitochondria)	release of cholesterol from cholesterol-loaded bacterial membranes (PBR)
		ODN: octadecaneuropeptide (DBI33-50) (KQATVGDINTERPGMLDF; Octadecaneuropeptide; UniProt P07108 33-50, looked up, fragment)	not	
0.23	1.1	CCC(C)N(C)C(=O)c1cc2ccccc2c(-c2ccccc2Cl)n1 (centres unmarked) [PK 11195, 1-(2-chlorophenyl)-N-methyl-N-(1-methyl-propyl)-3-isoquinolinecarboxamide]		cholesterol was liberated from the membranes
		TTN: triakontatetrapeptide, naturally occurring processing product of DBI (KTKPSDEEMLFIYGHYKQATVGDINTERPGMLDF; Triakontatetraneuropeptide; UniProt P07108 17-50, looked up, fragment)	able to mimic the effect of DBI	
